{"source": "patent US6723522B1", "about": "“Sodium bicarbonate cotransporter protein” (Takeda Chemical Industries, Ltd., priority 1998, dated 2004)", "tested_on": "human heart-derived protein hNBC2b (Na+—HCO3− cotransporter)", "assay": "Analysis of functions of human heart-derived protein by intracellular pH measurement (BCECF, ammonium pre-pulse) in hNBC2b-33/CHO-K1 cell", "type": "cell-based", "details": "DIDS final concentration 100 μM, 1 mM amyloride present", "protocol": "Data is expressed as mean±standard error. Comparison between 2 groups was carried out by T test and p<0.001 was determined to be significant. hNBC2b-33/CHO-K1 cell which had been cultured in Ham F12 medium (manufactured by Nissuiseiyaku) containing 10% bovine fetal serum (manufactured by Life Technologies, Inc.; USA) and wild type CHO-K1 cell as a control were seeded on a 96-well white plate to 2×10^4 cells/well, and cultured in a carbonic gas incubator at 37° C. for 48 hours. […] The solution was aspiration-removed, washed with 150 μl of A solution, the solution was aspiration-removed, 150 μl of A solution containing 1 mM amyloride (manufactured by Sigma) was added, and variation in an intracellular pH was measured with a fluorescent drug screening system FDSS 2000 (Hamamatsu Photonics). 200 μl of C solution (115 mM sodium chloride, 25 mM potassium chloride, 25 mM sodium bicarbonate, 0.8 mM dipotassium phosphate, 0.2 mM monopotassium phosphate, 1 mM potassium chloride, 1 mM magnesium chloride, 1 mM amyloride (manufactured by Sigma), 10 mM HEPES, pH 7.4) was added, and an increased amount of an intracellular pH increased in 1 minute (a ratio of fluorescent values at 450 nm and 490 nm (450 nm/490 nm)) was calculated. […]", "data": [{"smiles": "O=S(=O)(O)c1cc(N=C=S)ccc1C=Cc1ccc(N=C=S)cc1S(=O)(=O)O", "note": "[DIDS, 4,4′-diisothiocyanatostilbene-2,2′-disulfonic acid]", "values": [{"measurement": "increase in an intracellular pH after addition of C solution containing sodium ions and bicarbonate ions (ratio of fluorescent values 450 nm/490 nm)", "result": "suppressed"}]}]}
